Measured values from US20050239891A1, “Use of citrulline within the framework of intestinal insufficiency” (priority 2003, published 2005).

Legend:
[1] = tested on: rats that have undergone an intestinal resection (short-bowel syndrome model); assay: Short-bowel syndrome model: enteral nutrition supplemented with citrulline or arginine after intestinal resection; assay type: in vivo, Wistar rats; details: for weight gain: resected rats (approx. 80% of small intestine), after 10 days of enteral nutrition, L-citrulline 1 g/kg/day or L-arginine 0.994 g/kg/day, AANE approx. 15 g, SHAM approx. 21 g (FIG. 1)
From the text: The rat was chosen as model to evaluate the effect of supplementation with citrulline within the framework of an intestinal insufficiency and in particular within the framework of the short-bowel syndrome.
24 Wistar rats weighing approximately 220-230 g were used. They were acclimatized in metabolic cages for 5 days before being operated on; during this period they had free access to water and standard laboratory food.
The intakes of L-arginine and L-citrulline correspond to those used in humans taking account of the difference in metabolic rate between the two species (rate approximately 10 times higher in the rat).
Enteral nutrition was carried out for 10 days continuously by the insertion of a gastric probe. The nitrogen intake was 2 g/kg/day and the calorie intake 290 kcal/kg/day. The food rations were rendered isonitrogenous by intake of a mixture of non-essential amino acids (Gly, Ala, Ser, His, Pro, Asn) (Sigma-Aldrich).
Three types of measurements were carried out in particular: a daily measurement of the weight of the animals, a measurement of the concentration of arginine in the plasma at the end of the experiment by ion-exchange chromatography using a JEOL device and a daily monitoring of the cumulative nitrogen balance by adding up the daily differences between the quantity of nitrogen absorbed and the quantity of nitrogen evacuated in the urine by pyroluminescence using an ANTEK apparatus.

[2] = tested on: elderly malnourished rats; assay: Plasma amino acid concentrations in malnourished aged rats after renutrition; assay type: in vivo, Sprague-Dawley rats; details: diet enriched with L-citrulline 5 g/kg/d for a week, average ± SDM, p<0.05 vs AL, R and AANE
Description: (§1) Male Sprague-Dawley rats (Charles River Laboratories, L'Arbresles, France) aged 19 months were placed in individual cages, in a thermostatically controlled ambience (23°±1° C.), and subjected to a 12-hour light-darkness cycle (darkness from 08.00 hours to 20.00 hours). Their acclimatization was carried out over 2 weeks, during which their spontaneous food consumption was measured. They were fed a standard diet (A04, UAR, Villemoisson-sur-Orge, France) containing 17% proteins, 3% lipids, 59% carbohydrates and 21% water, fibres, vitamins and minerals. The average food intake during this period is 34.4 g/day.
(§2) After the acclimatization period, the rats were divided into 4 groups (cf. FIG. 5): a control group comprising rats (n=10) fed ad libitum (AL) for 12 weeks and 3 other groups subjected to a food restriction during the same period, i.e. fed with only 50% of the spontaneous ingesta (i.e. 17.2 g), with the standard diet (UAR A04).
(§3) At the end of the restriction period, the animals (n=10) in one group were […] sacrificed (group R) and the rats of the two remaining groups were fed for a week with 90% of the spontaneous ingesta (i.e. 30.9 g), either on a diet enriched with non-essential amino acids (AANE group: alanine, asparagine, glycine, serine, histidine, and proline supplied in equimolar fashion) or on a diet enriched with L-citrulline (5 g/kg/d) (citrulline group). The intakes of the two groups were isonitrogenous and isocaloric. The limitation to 90% of the spontaneous intakes makes it possible to be certain that the rats consume all of the food offered to them (Walrand et al., 2000).
(§4) At the end of the experimental period, the rats, in post-absorptive situation, were anaesthetized with isoflurane (3%) and received a subcutaneous injection of ^13C-valine at variable times before being killed by decapitation.
(§5) The blood was collected on heparin and centrifuged (3500 rpm, at +4° C. for 15 minutes). […]
(§6) The results are presented in the form of an average ±standard deviation from the mean (SDM). The results are analyzed by an ANOVA followed by an a posteriori Duncan test. […]

[3] = as above; assay type: in vivo, Sprague-Dawley rats; details: male, Sprague-Dawley, rat, plasma, oral; elderly malnourished rats, diet enriched with L-citrulline 5 g/kg/d for a week; average ± SDM; p<0.05 vs AL, R and AANE
Description: as §1, §2, §3, §4, §5, §6

[4] = tested on: elderly malnourished rats; assay: Tibialis muscle protein content (Gornall method) in malnourished aged rats after renutrition; assay type: in vivo, Sprague-Dawley rats; details: after renutrition phase, L-citrulline 5 g/kg/d for a week; CIT vs AL, R, AANE, p<0.05 (FIG. 4)
Description: as §1
as §2, with “A04). […]” for “A04).”
Determination of the protein content was carried out on the TIB. […] The proteins content of the TIB is measured by the Gornall method. […]
as §6

[5] = tested on: elderly malnourished rats; assay: Tibialis muscle amino acid content in malnourished aged rats after renutrition; assay type: in vivo, Sprague-Dawley rats; details: diet enriched with L-citrulline 5 g/kg/d for a week, average ± SDM, p<0.05 vs AL, R and AANE
Description: as §1, §2, §3
The 2 Tibialis muscles (TIB) were removed in order to determine on the one hand the protein and amino acid content (right TIB) and on the other hand, the fractional (FSR) and absolute (ASR) protein synthesis rates (left TIB). […]
as §6

[6] = tested on: elderly malnourished rats; assay: Tibialis muscle protein synthesis rate (13C-valine incorporation) in malnourished aged rats after renutrition; assay type: in vivo, Sprague-Dawley rats; details: L-citrulline 5 g/kg/d for a week
Description: as §1
as §2, with “A04). […]” for “A04).”
The synthesis rate was determined on the TIB by the method of injecting a dose of a tracer amino acid charge. […]

Row | Structure (SMILES) | weight gain [1] | concentration of arginine in the plasma ([1]; resected rats, after 10 days of supplemented enteral nutrition, compared with SHAM control (FIG. 2)) | cumulative nitrogen balance ([1]; resected rats, 10 days of supplemented enteral nutrition, compared with SHAM control (FIG. 3)) | Concentration of Ornithine in the plasma [2] [µmol/L] | concentration of arginine in the plasma [2] [µmol/L] | concentration at 1 week [3] [µM] | protein concentrations in the TIB [4] | Concentration of Arginine in the TIB [5] [nmol/g] | Concentration of Citrulline in the TIB [5] [nmol/g] | Concentration of Ornithine in the TIB [5] [nmol/g] | fractional protein synthesis rate (FSR) in the Tibialis muscle ([6]; compared with the other groups (FIG. 5A)) | absolute protein synthesis rate (ASR) in the Tibialis muscle ([6]; CIT vs R and AANE, p<0.05 (FIG. 5B))
1 | N=C(N)NCCC[C@H](N)C(=O)O [ARG, L-arginine, reference compound] | approximately 17 g | increase the concentration of arginine in the plasma compared with the control | – | – | – | – | – | – | – | – | – | –
2 | NC(=O)NCCC[C@H](N)C(=O)O [CIT, L-citrulline] | approximately 21 g | – | re-establish a nitrogen balance in the animals that have undergone resection, at the same level as that of the control group | 223 ± 27 | 561 ± 55 | 2390 ± 279 | significant increase | 203 ± 35 | 616 ± 104 | 20 ± 4 | does not seem significant | significant increase
